Experimental data reported in patent publication US11534457B2, “Use of dextran sulfate” (priority 2017, dated 2022).

Tested on: severe traumatic brain injury (sTBI)
Test: sTBI in rats, brain gene expression arrays and pathway analysis (Example 9)
Type: in vivo, Male Wistar rats
Conditions: TBI + 5 mg/kg LMW-DS
Method: The experimental protocol used in this study was approved by the Ethical Committee of the Catholic University of Rome, according to international standards and guidelines for animal care. Male Wistar rats of 300-350 g body weight were fed with standard laboratory diet and water ad libitum in a controlled environment. As the anesthetic mixture, the animals received 35 mg/kg b.w. ketamine and 0.25 mg/kg body weight midazolam by i.p. injection. Severe traumatic brain injury (sTBI) was induced by dropping a 450 g weight from 2 m height on to the rat head that had been protected by a metal disk previously fixed on the skull, according to the “weight drop” impact acceleration model (Marmarou et al., A new model of diffuse brain injury in rats. Part I: Pathophysiology and biomechanics. J Neurosurg. 1994; 80: 291-300). […] At the end of each period of treatment, rats were anesthetized again and then immediately sacrificed.
LMW-DS (Tikomed AB) was provided at a stock concentration of 20 mg/ml and was kept in a temperature-monitored refrigerator at 4° C. LMW-DS aliquots were diluted to the appropriate dosing concentration in sterile saline prior to delivery of a single subcutaneous injection.
Three doses of LMW-DS were administered subcutaneously 30 minutes post-TBI. The animals were sacrificed at 2 days post-TBI. The animals were divided into the following subgroups:
Three doses of LMW-DS were administered subcutaneously 30 minutes post-TBI. The animals were sacrificed at 7 days post-TBI. The animals were divided into the following subgroups:
An in vivo craniectomy was performed on all animals during anesthesia. After carefully removing the rat's skull, the brain was exposed and removed with a surgical spatula and quickly dropped in RNALater and preserved at 4° C. for further processing.
RNA extraction and array processing was carried out by SourceBioscience. The arrays used were the Agilent Rat expression arrays.
Statistical analysis was carried out using the Metaboanalyst software package. Gene expression changes of 10% with a p<0.05 were regarded as significant.
Pathway analysis of the differentially regulated genes was carried out using the Ingenuity pathway analysis package. The analysis was performed with special reference to pathways and molecular processes and diseases associated with neurodegenerative disease, including dementia, Alzheimer's disease, ALS, TBI and stroke, and with scarring and fibrosis, including glaucoma and normal pressure hydrocephalus (NPH) after subarachnoid haemorrhage.

low molecular weight dextran sulfate [LMW-DS]
−0.676: z score: Apoptosis (7 days after TBI)
3.907: z score: Cell movement of myeloid cells (7 days after TBI)
Inhibited: Diseases or functions annotation: Behavior (2 days after TBI) | Diseases or functions annotation: Carcinoma (2 days after TBI) | Diseases or functions annotation: Cell death of antigen presenting cells (2 days after TBI) | Diseases or functions annotation: Cell death of immune cells (2 days after TBI) | Diseases or functions annotation: Cell death of tumor cell lines (2 days after TBI) | Diseases or functions annotation: Cell movement (2 days after TBI) | Diseases or functions annotation: Cell movement of tumor cell lines (2 days after TBI) | Diseases or functions annotation: Cell proliferation of leukocyte cell lines (2 days after TBI) | Diseases or functions annotation: Cellular homeostasis (2 days after TBI) | Diseases or functions annotation: Chemotaxis (2 days after TBI) | Diseases or functions annotation: Concentration of prostaglandin (2 days after TBI) | Diseases or functions annotation: Development of vasculature (2 days after TBI) | Diseases or functions annotation: Digestive organ tumor (2 days after TBI) | Diseases or functions annotation: Digestive system cancer (2 days after TBI) | Diseases or functions annotation: Epithelial neoplasm (2 days after TBI) | Diseases or functions annotation: Extracranial solid tumor (2 days after TBI) | Diseases or functions annotation: Feeding (2 days after TBI) | Diseases or functions annotation: Growth of tumor (2 days after TBI) | Diseases or functions annotation: Hematologic cancer (2 days after TBI) | Diseases or functions annotation: Incidence of tumor (2 days after TBI) | Diseases or functions annotation: Leukocyte migration (2 days after TBI) | Diseases or functions annotation: Leukopoiesis (2 days after TBI) | Diseases or functions annotation: Locomotion (2 days after TBI) | Diseases or functions annotation: Lymphocyte homeostasis (2 days after TBI) | Diseases or functions annotation: Lymphocytic cancer (2 days after TBI) | Diseases or functions annotation: Lymphocytic neoplasm (2 days after TBI) | Diseases or functions annotation: Lymphopoiesis (2 days after TBI) | Diseases or functions annotation: Lymphoproliferative disorder (2 days after TBI) | Diseases or functions annotation: Malignant solid tumor (2 days after TBI) | Diseases or functions annotation: Metabolism of hormone (2 days after TBI) | Diseases or functions annotation: Migration of cells (2 days after TBI) | Diseases or functions annotation: Necrosis (2 days after TBI) | Diseases or functions annotation: Neoplasia of leukocytes (2 days after TBI) | Diseases or functions annotation: Non-melanoma solid tumor (2 days after TBI) | Diseases or functions annotation: Proliferation of hematopoietic progenitor cells (2 days after TBI) | Diseases or functions annotation: Quantity of cells (2 days after TBI) | Diseases or functions annotation: Quantity of epithelial tissue (2 days after TBI) | Diseases or functions annotation: Quantity of neuroglia (2 days after TBI) | Diseases or functions annotation: Resorption of bone (2 days after TBI) | Diseases or functions annotation: Size of body (2 days after TBI) | Diseases or functions annotation: Synthesis of hormone (2 days after TBI) | Diseases or functions annotation: Transcription of RNA (2 days after TBI) | Diseases or functions annotation: Vasculogenesis (2 days after TBI) | Ingenuity canonical pathway: Adrenomedullin signaling pathway (7 days after TBI) | Ingenuity canonical pathway: Colorectal Cancer Metastasis Signaling (7 days after TBI) | Ingenuity canonical pathway: ERK5 Signaling (7 days after TBI) | Ingenuity canonical pathway: Osteoarthritis Pathway (7 days after TBI) | Ingenuity canonical pathway: PPAR Signaling (7 days after TBI) | Ingenuity canonical pathway: Protein Kinase A Signaling (7 days after TBI) | Ingenuity canonical pathway: Wnt/β-catenin Signaling (7 days after TBI) | Ingenuity canonical pathway: cAMP-mediated signaling (7 days after TBI)
0.294: z score: Angiogenesis (7 days after TBI)
−0.155: z score: Adenocarcinoma (7 days after TBI)
2.084: z score: Cell movement of endothelial cells (7 days after TBI)
−1.026: z score: Breast or pancreatic cancer (7 days after TBI)
−0.831: z score: Abdominal carcinoma (7 days after TBI)
−2.118: z score: Bleeding (7 days after TBI)
−0.403: z score: Carcinoma (7 days after TBI)
Activated: Diseases or functions annotation: Apoptosis (2 days after TBI) | Diseases or functions annotation: Cell death (2 days after TBI) | Diseases or functions annotation: Edema (2 days after TBI) | Diseases or functions annotation: Secretion of molecule (2 days after TBI) | Diseases or functions annotation: Transport of molecule (2 days after TBI) | Ingenuity canonical pathway: Acute Phase Response Signaling (7 days after TBI) | Ingenuity canonical pathway: Cardiac Hypertrophy Signaling (7 days after TBI) | Ingenuity canonical pathway: Dendritic Cell Maturation (7 days after TBI) | Ingenuity canonical pathway: ERK/MAPK Signaling (7 days after TBI) | Ingenuity canonical pathway: Endothelin-1 Signaling (7 days after TBI) | Ingenuity canonical pathway: Fcγ Receptor-mediated Phagocytosis in Macrophages and Monocytes (7 days after TBI) | Ingenuity canonical pathway: GNRH Signaling (7 days after TBI) | Ingenuity canonical pathway: HMGB1 Signaling (7 days after TBI) | Ingenuity canonical pathway: IL-1 Signaling (7 days after TBI) | Ingenuity canonical pathway: IL-6 Signaling (7 days after TBI) | Ingenuity canonical pathway: IL-8 Signaling (7 days after TBI) | Ingenuity canonical pathway: ILK Signaling (7 days after TBI) | Ingenuity canonical pathway: Leukocyte Extravasation Signaling (7 days after TBI) | Ingenuity canonical pathway: Neuroinflammation Signaling Pathway (7 days after TBI) | Ingenuity canonical pathway: PI3K Signaling in B Lymphocytes (7 days after TBI) | Ingenuity canonical pathway: PKCθ Signaling in T Lymphocytes (7 days after TBI) | Ingenuity canonical pathway: Phospholipase C Signaling (7 days after TBI) | Ingenuity canonical pathway: Production of Nitric Oxide and Reactive Oxygen Species in Macrophages (7 days after TBI) | Ingenuity canonical pathway: Role of NFAT in Regulation of the Immune Response (7 days after TBI) | Ingenuity canonical pathway: Signaling by Rho Family GTPases (7 days after TBI) | Ingenuity canonical pathway: Synaptic Long Term Depression (7 days after TBI) | Ingenuity canonical pathway: mTOR Signaling (7 days after TBI)
1.58: z score: Cell cycle progression (7 days after TBI)
1.993: z score: Cell death of epithelial cells (7 days after TBI)
1.966: z score: Cell survival (7 days after TBI)
0.64: z score: Cancer of secretory structure (7 days after TBI)
1.492: z score: Cell movement of tumor cell lines (7 days after TBI)
−0.941: z score: Apoptosis of tumor cell lines (7 days after TBI)
0.73: z score: Abdominal adenocarcinoma (7 days after TBI)
0.061: z score: Abdominal neoplasm (7 days after TBI)
0.905: z score: Cancer (7 days after TBI)
−0.811: z score: Cell death of tumor cell lines (7 days after TBI)
2.297: z score: Cell movement (7 days after TBI)
0.991: z score: Cell viability of tumor cell lines (7 days after TBI)
0.791: z score: Cell death (7 days after TBI)
0.742: z score: Cancer of cells (7 days after TBI)
−0.474: z score: Abdominal cancer (7 days after TBI)
1.879: z score: Cell viability (7 days after TBI)
−1.953: z score: Breast or colorectal cancer (7 days after TBI) | z score: Breast or ovarian cancer (7 days after TBI)
